The test system of the first experiment is dorsal hair of depilated C57BL6 mice. Nature of the experiment: In vivo hair regrowth after depilation of dorsal skin of mice. Also on record: species or system mouse. The conditions noted are these: 13 days after depilation, 100 nM polypeptide, 80 μl topical once a day. The method, then:
(§1) The hair of the dorsal skin of mice (7 weeks old male C57BL6, purchased from Orient Bio Inc.) was cut out with a clipper, and hair removal cream (Niclean, Ildong Pharmaceutical) was applied. The depilated area was about 2×2.5 cm. Mice were treated with 20% glycerol/PBS (control group), 3% Minoxidil (MNX, 140 mM), FGF7 (100 nM) or Neo-Pep of the present invention (polypeptide of SEQ ID NO: 1, 100 nM), respectively, once a day in 80 μl using brush, for 13 days (n=6 per group).
as §1, with “Specifically, the hair” for “The hair”, “of a mouse” for “of mice”, “group). For comparative observation, the dorsal skin of the mouse was photographed before and after the beginning of the test.” for “group).”
For the sequence “ADQIIEYLKQQVSLL (Homo sapiens N11 polypeptide; Neo-Pep-(13-27)) [Polypeptide N11, fragment of Neo-Pep consisting of 15 amino acids without KEKA]”, the “dorsal hair growth compared with control group” value was “didn't show such effect”. The same measure, in the same setting: in the case of “AVLKRLEQKGAEADQ (Homo sapiens N9 polypeptide; Neo-Pep-(1-15)) [Polypeptide N9, fragment of Neo-Pep consisting of 15 amino acids without KEKA]” it was “didn't show such effect”.

With “EADQIIEYLKQQVSL (Homo sapiens N10 polypeptide; Neo-Pep-(12-26)) [Polypeptide N10, fragment of Neo-Pep consisting of 15 amino acids without KEKA]”, the “dorsal hair growth compared with control group” value is recorded as “didn't show such effect”. The same measure, in the same setting: in the case of “IEYLKQQVSLLKEKA (Homo sapiens N12 polypeptide; Neo-Pep-(17-31)) [Polypeptide N12, fragment of Neo-Pep consisting of 15 amino acids comprising KEKA]” it was “grew much more”; in that of “KQQVSLLKEKAILQA (Homo sapiens N13 polypeptide; Neo-Pep-(21-35)) [Polypeptide N13, fragment of Neo-Pep consisting of 15 amino acids comprising KEKA]”, “grew much more”. On the same count and under the same terms, in the case of “LKEKAILQATLREEK (Homo sapiens N14 polypeptide; Neo-Pep-(27-41)) [Polypeptide N14, fragment of Neo-Pep consisting of 15 amino acids comprising KEKA]” it was “grew much more”.

Another experiment deals with CD34+ hair follicle stem cells. Nature of the experiment: In vitro hair growth assay / BrdU proliferation assay with CD34+ hair follicle stem cells. Type of experiment: cell-based, mouse. The conditions noted are these: each peptide 100 nM, 24 hours. The protocol:
The hair of the dorsal skin of 7 weeks old male C57BL6 mice (purchased from Orient Bio Inc.) were cut with a clipper and skin tissue samples of the depilated dorsal region of the mice were collected. The collected skin tissue samples were immersed in medium using collagenase, DNase I, and hyaluronidase, and cells were isolated using Gentle MACSTM Dissociator (Miltenyi Biotec). After the cells were separated, the separated cells were incubated with a mouse CD34-Biotin antibody (Miltenyi Biotec). Cells and antibody solutions were incubated with streptavidin microbeads (Miltenyi Biotec) and then separated using LS column (Miltenyi Biotec). The separated cells were cultured in DMEM medium containing 10% FBS, 1% penicillin/streptomycin solution in humidified air of 95% 02 and 5% CO2 at 37° C.
Cell proliferation can be confirmed using the BrdU cell proliferation assay kit (Cell Signaling). Proliferation assays were performed using protocols presented by […]. Briefly, the cells were incubated with BrdU for 2 h. The primary BrdU detection antibody was incubated for 1 hour and the secondary anti-mouse IgG, HRP-conjugate antibody was incubated for 30 minutes.
A hair growth in vitro assay was performed using the Cyquant Assay (Thermo Fisher). […]
As to “AEADQIIEYLKQQVSLLKEK (Homo sapiens N4 polypeptide; Neo-Pep-(11-30)) [Polypeptide N4, fragment of Neo-Pep consisting of 20 consecutive amino acids without KEKA]”, the “inducing proliferation of CD34+ hair follicle stem cells (relative cell number)” value (“inducing proliferation … (relative cell number)” below) is recorded as “didn't show any effect”. Turning to “AVLKRLEQKGAEADQIIEYL (Homo sapiens N1 polypeptide; Neo-Pep-(1-20)) [Polypeptide N1, fragment of Neo-Pep consisting of 20 consecutive amino acids without KEKA]”, the “inducing proliferation … (relative cell number)” value is recorded as “didn't show any effect”. Consider “IEYLKQQVSLLKEKAILQAT (Homo sapiens N5 polypeptide; Neo-Pep-(17-36)) [Polypeptide N5, fragment of Neo-Pep comprising KEKA]”, for which the “inducing proliferation … (relative cell number)” value is reported as “induced proliferation”. Same read-out and setting: the value for “KGAEADQIIEYLKQQVSLLK (Homo sapiens N3 polypeptide; Neo-Pep-(9-28)) [Polypeptide N3, fragment of Neo-Pep consisting of 20 consecutive amino acids without KEKA]” was “didn't show any effect”. For the sequence “KQQVSLLKEKAILQATLREE (Homo sapiens N7 polypeptide; Neo-Pep-(21-40)) [Polypeptide N7, fragment of Neo-Pep comprising KEKA]”, the “inducing proliferation … (relative cell number)” value was “induced proliferation”.

Take “LKRLEQKGAEADQIIEYLKQ (Homo sapiens N2 polypeptide; Neo-Pep-(3-22)) [Polypeptide N2, fragment of Neo-Pep consisting of 20 consecutive amino acids without KEKA]”: the “inducing proliferation … (relative cell number)” value is “didn't show any effect”. Still for that read-out and setting: the value for “QVSLLKEKAILQATLREEK (Homo sapiens N8 polypeptide; Neo-Pep-(23-41)) [Polypeptide N8, fragment of Neo-Pep comprising KEKA]” was “induced proliferation”.

Turning to “YLKQQVSLLKEKAILQATLR (Homo sapiens N6 polypeptide; Neo-Pep-(19-38)) [Polypeptide N6, fragment of Neo-Pep comprising KEKA]”, the “inducing proliferation … (relative cell number)” value is listed as “induced proliferation”.

The values are drawn from patent US11872263B2, “AIMP1 protein fragment and hair growth-promoting composition containing same as active ingredient” (CUREBIO THERAPEUTICS, priority 2016, dated 2024).
